Entries after “also recorded” stand apart in the source; their conditions may differ. Read-outs that look alike come from different tables or passages of the source.
Assays:
DENV2 virus [1] = test: QL-XII-47 biotin test, DENV2 in Huh7 cells, titration in FFU/ml; assay type: cell-based, Dengue virus; settings: treated for 24 or 48 h
[2] = system: DENV2-Fluc(WT) replicon RNA; test: DENV2-Fluc(WT) replicon translation, luciferase, Huh7 cells; assay type: cell-based, Dengue virus; settings: 6 hours post-electroporation; QL compounds 2 μM, cycloheximide 30 μg/mL
[3] = system: DENV2-Fluc (GDV) replicon RNA; test: DENV2-Fluc(GDV) mutant replicon translation, luciferase, Huh7 cells; assay type: cell-based, Dengue virus; settings: 6 hours post-electroporation; QL compounds 2 μM, cycloheximide 30 μg/mL
[4] = system: encephalomyocarditis virus (EMCV) IRES; assay type: cell-based
[5] = system: Ebola glycoprotein (EBOV); assay type: cell-based, Ebola virus
Marburg virus (MARV) = assay type: cell-based
Junin virus (JUNV) = assay type: cell-based
Lassa fever virus (LASV) = assay type: cell-based
[6] = system: Venezuelan equine encephalitis virus (VEEV); assay type: cell-based
[7] = system: Rift Valley fever virus (RVFV); assay type: cell-based
[8] = system: vesicular stomatitis virus (VSV); assay type: cell-based
poliovirus Type 1 (PV1) = assay type: cell-based
[9] = system: herpes simplex virus 1 (HSV-1); assay type: cell-based
[10] = system: DENV2 New Guinea C (DENV2-NGC); test: Viral yield reduction assay, DENV2-NGC in Huh7 cells, titration by focus forming assay (FFA); assay type: cell-based, Dengue virus
Huh7 cells = test: CellTiter-Glo luminescent cell viability assay (cytotoxicity); assay type: cell-based; settings: 20 μM, the highest concentration tested
Experimental: As a positive control for cytotoxicity, some wells were supplemented with 0.1% saponin. The plates were incubated for 24 hours at 37° C., and the cell cytotoxicity was measured following the instructions of the CellTiter-Glo Luminescent cell viability assay (Promega G7570).

Kunjin virus = Kunjin virus yield reduction in Huh7 cells, plaque assay in BHK21 cells; assay type: cell-based; settings: 2 μM
[11] = system: recombinant viral particles (RVP) with dengue structural proteins and West Nile virus reporter RNA; test: Single-cycle reporter viral particle (RVP) assay, Renilla luciferase, Huh7 cells; assay type: cell-based; settings: entry and translation of subgenomic replicon RNA
DENV2 replicon = assay type: cell-based, Dengue virus; settings: 2 μM added at 24 hours, read at 72 hours post-electroporation
[12] = system: DENV2 virus-like particles (VLPs); test: DENV virus-like particle (VLP) expression and secretion, Huh7 cells, Western blot; assay type: cell-based, Dengue virus; settings: 3 μM, supernatants 24 hours post-treatment
Experimental: The plasmid used for virus-like particles (VLP) production was provided by Stephen Harrison. Briefly, the codon optimized sequence of DENV2-FGA/02 prM-E (Wang et al., PLoS ONE (2009) 4:e8325) was introduced in the pCDNA3.1 vector. To produce VLPs, Huh7 cells were transfected with pCDNA3.1-D2.VLP using Lipofectamine 2000 (Life Technologies 11668-019) according to the manufacturer's instructions. […] The supernatants were collected at 24 hours post-treatment and precipitated for 3 hours at 4° C. by the addition of 0.075% of PEG 8000. The VLPs were pelleted by centrifugation at 10,000 g for 15 min at 4° C. The pellet was suspended in 200 μl of 1×TNE (10 mM Tris-HCl pH 7.5, 2.5 mM EDTA, 50 mM NaCl), loaded over a sucrose cushion (800 μl of 12.5% sucrose in 1×TNE), and centrifuged at 100,000 g for 2 h at 4° C. The supernatants were discarded, and the purified VLPs were suspended in 50 μl of 1×TNE. 25 μl of purified VLPs were analyzed for DENV2 E protein expression by Western blotting using 4G2 antibody. An equal amount of purified VLPs was loaded on a SDS-PAGE and submitted to Coomassie staining to control for equal loading of the VLPs-enriched supernatants. Steady state expression of DENV2 E protein in the cell lysates was analyzed by Western blotting using 4G2 antibody.

VSV = assay type: cell-based, vesicular stomatitis virus
[13] = system: VSV pseudotyped with rabies virus glycoprotein (RABV); assay type: cell-based, vesicular stomatitis virus
[14] = system: VSV pseudotyped with Ebola glycoprotein (EboV); assay type: cell-based, vesicular stomatitis virus
[15] = system: human cytomegalovirus (HCMV); assay type: cell-based
poliovirus = assay type: cell-based
[16] = system: Japanese Encephalitis virus (JEV); assay type: cell-based
Junin virus = assay type: cell-based
influenza virus = assay type: cell-based
vaccinia virus = assay type: cell-based
DENV2 virus [17] = test: DENV2 viral production time course in Huh7 cells (FFU/ml, RTqPCR, Western blot); assay type: cell-based, Dengue virus; settings: 4 μM
DENV1 WP74 = test: Yield reduction assay, DENV1-WP74 in Huh7 cells, FFA in Vero cells; settings: Huh7 MOI 1, FFA in Vero cells
DENV3 THD3 = test: Yield reduction assay, DENV3-THD3 in Huh7 cells, FFA in Vero cells; settings: Huh7 MOI 1, FFA in Vero cells
DENV4 TVP360 = test: Yield reduction assay, DENV4-TVP360 in Huh7 cells, FFA in Vero cells; settings: Huh7 MOI 1, FFA in Vero cells
DENV2-NGC genomic RNA = test: Time course of intracellular DENV genomic RNA by qRT-PCR and in situ hybridization; settings: 2 μM, MOI 1, normalized to GAPDH
[18] = molecular target: DENV RNA-dependent polymerase (Dengue virus type 2, UniProt P14340); settings: Wu et al. 2002; cited from earlier work

## CN(C/C=C/C(=O)N1CCc2ccc(-n3c(=O)ccc4cnc5ccc(-c6cnn(C)c6)cc5c43)cc21)CCNC(=O)NCCOCCOCCOCCNC(=O)CCCC1SCC2NC(=O)NC21 (stereo not drawn) [QL-XII-47-biotin]
DENV2 virus [1]
  inhibitory activity against dengue virus: significantly reduced inhibitory activity

## C=CC(=O)Nc1cc(-n2c(=O)ccc3cnc4ccc(-c5cnn(C)c5)cc4c32)ccc1C [QL-XII-56]
[2]
  luciferase activity (translation of input RNA): Reduced luciferase activity
[3]
  luciferase activity (translation of input RNA): Reduced luciferase activity
[4]
  EMCV IRES-dependent translation: inhibited
[5]
  inhibitory activity: inhibitory activity
Marburg virus (MARV)
  inhibitory activity: inhibitory activity
Junin virus (JUNV)
  inhibitory activity: inhibitory activity
Lassa fever virus (LASV)
  inhibitory activity: inhibitory activity
[6]
  inhibitory activity: inhibitory activity
[7]
  inhibitory activity: inhibitory activity
[8]
  inhibition of VSV: inhibited
Poliovirus Type 1 (PV1)
  inhibition of PV1: inhibited

## Nc1nc2c(ncn2COCCO)c(=O)[nH]1 [acyclovir, reference compound]
[9]; 8 μM
  plaques detected: no plaques were detected

## C=CC(=O)N1CCc2ccc(-n3c(=O)ccc4cnc5ccc(-c6cnn(C)c6)cc5c43)cc21 [QL-XII-47]
[10]; DENV2 NGC, Huh7 MOI 1, FFA in Vero cells
  activity against strain: potent activity
[10]; Dengue virus, DENV2, Huh-7
  EC90: 0.4 µM
[10]; at single-digit micromolar concentrations
  decrease in DENV2 New Guinea C (DENV2-NGC) yield / drop in viral titer: > 3 log10 unit
[10]; cells pretreated for 6 hours and washed prior to infection
  inhibition of DENV after pretreatment of cells: potent inhibition
[10]; time-of-addition experiment
  time of addition giving maximal anti-DENV effect: 0-3 hours post-infection
Huh7 cells
  cytotoxicity: no cytotoxicity; also recorded: not observed
Kunjin virus
  reduction in Kunjin virus yield: greater than 10 fold
[11]
  inhibition in single-cycle reporter virus assay: potent inhibitory activity
DENV2 replicon
  activity on electroporated subgenomic reporter replicon: does not have activity
[12]
  yield of virus-like particles (VLPs): did not inhibit
[2]
  luciferase activity (translation of input RNA): Reduced luciferase activity
[3]
  luciferase activity (translation of input RNA): Reduced luciferase activity
[4]
  EMCV IRES-dependent translation: reduces translation; also recorded: inhibited
VSV
  inhibition of infection: inhibits infection
[13]
  inhibition of infection: inhibits infection
[14]
  inhibition of infection: inhibits infection
[15]
  inhibition of reporter HCMV infection: inhibits
[9]
  inhibition of infection and plaque formation: inhibits
  plaques detected: no plaques were detected
poliovirus
  inhibition of infection and viral gene expression: inhibits
[16]
  inhibition of cytopathic effects: modest inhibitor
Junin virus
  inhibition of cytopathic effects: modest inhibitor
Influenza virus
  activity against virus: no activity
Vaccinia virus
  activity against virus: no activity
[5]
  inhibitory activity: inhibitory activity
Marburg virus (MARV)
  inhibitory activity: inhibitory activity
Junin virus (JUNV)
  inhibitory activity: inhibitory activity
Lassa fever virus (LASV)
  inhibitory activity: inhibitory activity
[6]
  inhibitory activity: inhibitory activity
[7]
  inhibitory activity: inhibitory activity
[8]
  inhibition of VSV: inhibited
Poliovirus Type 1 (PV1)
  inhibition of PV1: inhibited
DENV2 virus [17]
  expression of DENV proteins NS3 and core (Western blot): reduced steady-state expression
DENV2 virus [17]; after about 12 hours of infection
  DENV2 viral production (FFU/ml, viral count): inhibited
Vero
  cytotoxicity: not observed
BHK21
  cytotoxicity: not observed
3T3
  cytotoxicity: not observed
Hela
  cytotoxicity: single-digit micromolar cytotoxicity
293
  cytotoxicity: single-digit micromolar cytotoxicity
DENV1 WP74
  activity against strain: potent activity
DENV3 THD3
  activity against strain: potent activity
DENV4 TVP360
  activity against strain: potent activity
DENV2-NGC genomic RNA
  DENV genomic RNA copy number over time: relatively unchanged copy number

## C=CC(=O)N1CCC[C@@H](n2nc(-c3ccc(Oc4ccccc4)cc3)c3c(N)ncnc32)C1 [PCI-32765, reference compound]
[10]; added 1 hour post-infection, MOI 1, FFA at 24 h post-infection
  effect on DENV yield: not inhibited; also recorded: no effect

## C[C@@H]1C[C@@H]([C@H](O)CC2CC(=O)NC(=O)C2)C(=O)[C@@H](C)C1 [CHX, cycloheximide, reference compound]
[2]
  luciferase activity (translation of input RNA): Reduced luciferase activity
[3]
  luciferase activity (translation of input RNA): Reduced luciferase activity

## C[C@@]1(O)[C@H](O)[C@@H](CO)O[C@H]1n1ccc2c(N)ncnc21 [Compound 7-DMA]
[18]
  EC50: 15 µM
